In brackets after ≈: the same amount, converted by molar mass.

The conditions of the series: buffer; pH 7.4; 200.0 µM.
`CCOc1cc2c(C#N)c(N3CCNCC3)nc(N)c2c(N)n1`: the solubility (kinetic) was 1.3 µg/mL (≈ 4.15 µM). Consider `CCCn1c(C(O)c2cc(OC)c(OC)c(OC)c2)nc2ccccc21` (configuration not stated), for which the kinetic solubility stood at 49.3 µg/mL (≈ 138 µM).

With `COc1ccc(S(=O)(=O)N(C)C(C)CCc2ccco2)cc1` (configuration not stated), the solubility (kinetic) came to 35 µg/mL (≈ 108 µM). In turn, `N#Cc1ccc(OS(=O)(=O)c2ccc(-c3ccon3)s2)cc1` showed a solubility (kinetic) of 11.8 µg/mL (≈ 35.5 µM). In turn, `Cc1cccc(C)c1NC(=O)CN.Cl` came in with a solubility (kinetic) greater than 32.2 µg/mL. For the compound `N#Cc1c(Cl)nc2c(c1C#N)CCCC2`, the kinetic solubility was greater than 32.6 µg/mL. `CC(=O)N/C(=C\c1ccccc1)C(=O)OCC(=O)NC1CCS(=O)(=O)C1` (configuration not stated) showed a kinetic solubility greater than 57.1 µg/mL. With `Cc1cc2oc(=O)sc2cc1NS(=O)(=O)c1ccccc1` the figure was 42.8 µg/mL (≈ 133 µM); with `O=C(O)COCC(=O)N1CCN(C(c2ccccc2)c2ccccc2)CC1`, greater than 55.3 µg/mL; with `COc1ccc(NC(=O)NC(c2ccccc2)c2ccccc2)c(OC)c1`, less than 0.4 µg/mL.

Turning to `CC(C)CNC(=S)N1CCC(C(=O)c2ccc(F)cc2)CC1`, the solubility (kinetic) is greater than 48.4 µg/mL. Consider `Cc1ccc(OCc2csc(N)n2)cc1`, for which the kinetic solubility is greater than 33 µg/mL. Regarding `O=C(/C=C/c1ccc(Cl)cc1)NCCCn1ccnc1`, the solubility (kinetic) is greater than 43.5 µg/mL. In the case of `CN(C(=O)COC(=O)c1cncc(Br)c1)C1CCCCC1`, the solubility (kinetic) was greater than 53.3 µg/mL. The compound `OCCN1CCN(C(=S)Nc2ccc(SC(F)F)cc2)CC1` registered a kinetic solubility greater than 52.1 µg/mL. Compound `COc1ccc(/C=N/NC(=O)c2cccnc2)cc1CN1CCOCC1` returned a kinetic solubility greater than 53.2 µg/mL.

The compound `Cc1ccc(C(=O)NC(=S)Nc2ccccc2C)cc1` registered a kinetic solubility of 1.4 µg/mL (≈ 4.92 µM). Next, `CCOC(=O)c1ccc(-c2ccc3c(c2)CCC3)nc1C`: less than 0.6 µg/mL; `Cc1cccc(NC(=O)c2ccc3c(c2)CCN3S(C)(=O)=O)c1C`: 1.6 µg/mL (≈ 4.65 µM). In turn, `Cc1ccc(OCCNC(=O)C(C)SCC(=O)Nc2ccc(F)cc2)cc1` (configuration not stated) had a kinetic solubility of 35 µg/mL (≈ 89.6 µM). On to `Cc1ccc2c(C)c(C(=O)N(C)Cc3ccncn3)oc2c1C`, for which the kinetic solubility came out at 32.7 µg/mL (≈ 106 µM). Compound `NC(=Nc1ccc(Cl)cc1)c1ccccc1` showed a solubility (kinetic) greater than 34.6 µg/mL. Compound `O=S(=O)(c1ccc(F)cc1)n1cnc2ccccc21` displayed a kinetic solubility of 28.4 µg/mL (≈ 103 µM). `Cc1ccc(NC(=O)COC(=O)CCc2ccccc2)c(Cl)c1` showed a kinetic solubility of 6.9 µg/mL (≈ 20.8 µM). In turn, `CCOC(=O)C1=C(N)Oc2cc(O)ccc2C1c1ccc(C)cc1` (configuration not stated) returned a solubility (kinetic) of less than 0.7 µg/mL. Regarding `CC(=O)c1cn(Cc2ccccc2F)c2ccccc12`, the solubility (kinetic) was less than 0.6 µg/mL. `O=C(COC(=O)C1CCC(=O)N1)Nc1cccc([N+](=O)[O-])c1` (configuration not stated) had a kinetic solubility greater than 46.1 µg/mL. Turning to `COc1cccc(C(=O)Nc2ccccc2-c2ccccc2)c1`, the kinetic solubility was 24 µg/mL (≈ 79.1 µM).

`Cc1ccc(NC(=O)c2cc(-c3ccc(F)cc3)on2)cc1C`: the kinetic solubility amounted to 0.4 µg/mL (≈ 1.29 µM). Next, `Nc1ccc(S(=O)(=O)Nc2ccc(C(=O)c3ccccc3)cc2)cc1`: 9.4 µg/mL (≈ 26.7 µM); `COC(=O)Cn1cnc2scc(-c3ccc(C)cc3)c2c1=O`: greater than 47.2 µg/mL.

As to `O=C(Nc1ccon1)Nc1ccc(F)cc1F`, the solubility (kinetic) is greater than 35.9 µg/mL. For `COC(=O)c1cc(-n2cccc2)ccc1N1CCOCC1`, the kinetic solubility turned out to be 35.6 µg/mL (≈ 124 µM). Next, `COC(=O)c1cccc(NC(=O)c2ccccc2)c1`: 35.7 µg/mL (≈ 140 µM); `CCOC(=O)CCCCNC(=O)Nc1ccccc1`: greater than 39.6 µg/mL. As for `Cc1nc(N(C)C)c2sc(=S)n(Cc3ccccc3)c2n1`, the solubility (kinetic) is less than 0.2 µg/mL.

`Cc1ccc(SCC(=O)OCC(=O)Nc2ccc3[nH]c(=O)[nH]c3c2)cc1C` returned a kinetic solubility of 5.8 µg/mL (≈ 15 µM).

Take `COc1cccc(/C=C/C(=O)OCC(=O)N2CCCC2)c1OC`: the solubility (kinetic) is greater than 47.9 µg/mL. Next, `Cc1ccc(Nc2c(-c3ccc(C)o3)nc3ncccn23)cc1`: 1.9 µg/mL (≈ 6.24 µM); `COc1ccc(C(=O)Cn2cc[n+](C)c2)cc1.[Br-]`: greater than 46.7 µg/mL; `CCOCCn1c(-c2ccccc2)nc2ccccc21`: 39.5 µg/mL (≈ 148 µM). `COc1cccc(CNC(=O)c2cc(C)nc3ccccc23)c1` yielded a solubility (kinetic) of 41.1 µg/mL (≈ 134 µM). The solubility kinetic values of the last two compounds are within 1.5-fold of each other.

For the origin of these results see PubChem BioAssay AID1996.
